Several values for one entry are separate records, joined by “and”; a condition that tells them apart may be missing. Identical values can stand only once. Like-named read-outs stand apart in the source and are kept apart here. Values belong to the molecule of their own block, whether it stands above or below them.
How the values were obtained:
[1] = Metabolic stability in simulated intestinal fluid (SIF), pH 6.8, with or without pancreatin; format: in vitro ADME; conditions: 5 μM, 37° C.
Procedure: (§1) Metabolic Stability in SIF and SGF (Simulated Intestinal and Gastric Fluid)
Buffer 3=SIF without enzyme
Buffer 4=SIF with 1% pancreatin
(§2) SIF was prepared freshly with 8.7 mM NaOH, 28.65 mM NaH2PO4, 105.85 mM NaCl, with a final pH of 6.8. SGF was prepared freshly with 34.2 mM NaCl, with a final pH of 1.2. Enzymes such as pepsin or pancreatin were added to some buffers. Human and rat plasma (K2 EDTA) were purchased from BioreclamationIVT.
(§3) Compounds were dissolved as 1.5 mM DMSO stocks. Compounds were transferred to SIF, SGF, or plasma at 5 μM on a 96-well deep well plate. After mixing, samples were transferred to several 96-well plates (25 μL/well), and incubated at 37° C. The extent of metabolism was calculated as the disappearance of the test compound, compared to the 0-min control reaction incubations. Candesartan Cilexetil and omeprazole were included as positive controls for SIF and SGF, respectively, to verify assay performance.
(§4) At each of the time points, 150 μL of quench solution (100% acetonitrile with 0.1% formic acid) with internal standard (bucetin for positive ESI mode and warfarin for negative ESI mode) was transferred to each well. Plates were sealed and centrifuged at 4° C. for 15 minutes at 4000 rpm. The supernatant was transferred to fresh plates for LC/MS/MS analysis.
(§5) Elution conditions are detailed in the table below.
(§6) Initial rates of the clearance of test compounds were calculated using linear regression of semi-log plot of % remaining of compounds versus time. The elimination rate constant (equals to −slope) of the linear regression was then used to determine t½ values.

[2] = Metabolic stability in simulated gastric fluid (SGF), pH 1.2, with or without pepsin; format: in vitro ADME; conditions: 5 μM, 37° C.
Procedure: as §1
Buffer 1=SGF without enzyme
Buffer 2=SGF with 0.32% pepsin
as §2, §3, §4, §5, §6

[3] = format: in vivo, rat
Procedure: • 1. Eight (8) male JVC SD rats (purchased from Charles River Lab) were monitored daily for body condition and health status during the 3-5 days acclimation period. The rats were randomly assigned into […] (n=4). • 2. […] The dosed rats were individually placed into a metabolic cage, and have access to food and water at all times. The urine from each rat was collected daily from the metabolic cages, and kept in dry ice. • 4. At predose (0 min), 5 min, 15 min, 30 min, 1 hr, 2 hr, 8 hr, and 24 hr post dosing, approximately 200 ul blood samples were collected from each rat and transferred to EDTA tubes. • 5. The blood samples in EDTA vials were centrifuged at 4° C. and 6,000 rpm for 10 minutes to generate ˜100 μl of plasma per sample. Blood samples were processed as quickly as possible and remain no longer than 2 min at room temperature and no longer than 15 minutes at 4° C. prior to processing. • 6. All samples were transferred for bioanalytic assay using LCMS

Caco-2 cells = assay: Caco-2 permeability study with or without P-gp inhibitor GF120918; conditions: for Abs. Quotient: (Papp A-B with inhibitor − without inhibitor)/Papp A-B with inhibitor; for Caco-2 Cells Permeability Recovery Rate: 1 hr, pH 7.4
Procedure: Buffer=HBSS, pH 7.4 with 5 mM HEPES
Caco-2 cell plates were obtained commercially and were maintained for 21 days at 37° C. with 5% CO2. Cells were washed with Hank's Balanced Salt Solution (HBSS) 30 min before starting the experiment. Test compound solutions were prepared by diluting from DMSO stock into HBSS buffer in the presence or absence of 10 μM of P-gp inhibitor GF120918. The final DMSO concentration is 0.2%. Prior to each experiment, cell monolayer integrity was verified by transendothelial electrical resistance (TEER). Transport experiment was initiated by adding test compounds to the apical (75 μL) side. Transport plates were incubated at 37° C. in a humidified incubator with 5% CO2. Samples were taken from the donor and acceptor compartments after 1 hr and analyzed by liquid chromatography with tandem mass spectrometry (LC/MS/MS).
Apparent permeability (Papp) values were calculated using the following equation: Papp=(dQ/dt)/A/C0
where dQ/dt is the initial rate of amount of test compound transported across cell monolayer, A is the surface area of the filter membrane, and C0 is the initial concentration of the test compound. C0 is calculated for each condition using a 4-point calibration curve.
Absorption quotient between the two assay conditions was calculated by the following equation:
Absorption quotient (AQ)=(Papp, A-B with inhibitor−Papp, A-B without inhibitor)/Papp, A-B with inhibitor where Papp, A-B with inhibitor and Papp, A-B without inhibitor represent the apparent permeability of test compound from the apical to basal side of the cellular monolayer in the presence and absence of 10 μM P-gp inhibitor GF120918, respectively.
All samples were analyzed on LC/MS/MS using an AB Sciex API 4000 instrument, coupled to a Shimadzu LC-20AD LC Pump system. Analytical samples were separated using a Waters Atlantis T3 dC18 reverse phase HPLC column (10 mm×2.1 mm) at a flow rate of 0.5 mL/min. The mobile phase consisted of 0.1% formic acid in water (solvent A) and 0.1% formic acid in acetonitrile (solvent B).

[4] = Plasma stability study, human plasma; format: in vitro ADME; conditions: human, plasma
Procedure: (§7) Human and rat plasma (K2 EDTA) were obtained from Bioreclamation.
(§8) Compounds were dissolved as 0.3 mM DMSO stocks. Compounds were transferred to the plasma at 1 μM on a 96-well deep well plate. After mixing, samples were transferred to several 96-well plates (25 μL/well), and incubated at 37° C. The extent of metabolism was calculated as the disappearance of the test compound, compared to the 0-min control reaction incubations. Propantheline was included as a positive control to verify assay performance.
as §4, with “(50% acetonitrile, 50% methanol” for “(100% acetonitrile”, “0.05%” for “0.1%”
as §5, §6

[5] = Plasma stability study, rat plasma; format: in vitro ADME; conditions: rat, plasma
Procedure: as §7, §8
as §4, with “(50% acetonitrile, 50% methanol” for “(100% acetonitrile”, “0.05%” for “0.1%”
as §5, §6

[6] = Rat, PO, 10 mg/kg equiv., n = 4, analyte: Parent (BASE STRUCTURE)
[7] = Rat, PO, 10 mg/kg equiv., n = 4, analyte: Prodrug
[8] = rat, dosed as prodrug, 10 mg/kg equivalent of Base Structure, analyte Parent (Base Structure), Average
[9] = rat, dosed as prodrug, 10 mg/kg equivalent of Base Structure, analyte Parent (Base Structure), Combined (average ± std. dev.)
[10] = rat, dosed as prodrug, 10 mg/kg equivalent of Base Structure, analyte Parent (Base Structure), individual animals, 10 mg/kg
[11] = rat, dosed as prodrug, 10 mg/kg equivalent of Base Structure, analyte Prodrug, Average
[12] = rat, dosed as prodrug, 10 mg/kg equivalent of Base Structure, analyte Prodrug, Combined (average ± std. dev.)
[13] = rat, dosed as prodrug, 10 mg/kg equivalent of Base Structure, analyte Prodrug, individual animals, 10 mg/kg
[14] = +GF120918 (10 μM), 10 μM compound

SMILES: CCCCCC(=O)NC(Cc1ccc(OP(=O)(OCCN(C)C)OCCN(C)C)cc1)C(=O)NC(C(=O)NCCCCCC(N)=O)C(C)CC (stereo not drawn) [Compound A18]
SIF Stability (pH 6.8) Half-Life (min) ([1]; +Pancreatin (1%)): 39.4 min
SIF Stability (pH 6.8) 0 min ([1]; +Pancreatin (1%)): 100%
SIF Stability (pH 6.8) 60 min ([1]; +Pancreatin (1%)): 40%
SIF Stability (pH 6.8) 120 min ([1]; +Pancreatin (1%)): 12%
SIF Stability (pH 6.8) 240 min ([1]; +Pancreatin (1%)): 25%
SIF Stability (pH 6.8) Half-Life (min) ([1]; −Pancreatin): 30.2 min
SIF Stability (pH 6.8) 0 min ([1]; −Pancreatin): 100%
SIF Stability (pH 6.8) 60 min ([1]; −Pancreatin): 25%
SIF Stability (pH 6.8) 120 min ([1]; −Pancreatin): 17%
SIF Stability (pH 6.8) 240 min ([1]; −Pancreatin): 8%
SGF Stability (pH 1.2) Half-Life (min) ([2]; +Pepsin (0.32%)): 46.4 min
SGF Stability (pH 1.2) 0 min ([2]; +Pepsin (0.32%)): 100%
SGF Stability (pH 1.2) 60 min ([2]; +Pepsin (0.32%)): 52%
SGF Stability (pH 1.2) 120 min ([2]; +Pepsin (0.32%)): 17%
SGF Stability (pH 1.2) 240 min ([2]; +Pepsin (0.32%)): 18%
SGF Stability (pH 1.2) Half-Life (min) ([2]; −Pepsin): 42.6 min
SGF Stability (pH 1.2) 0 min ([2]; −Pepsin): 100%
SGF Stability (pH 1.2) 60 min ([2]; −Pepsin): 51%
SGF Stability (pH 1.2) 120 min ([2]; −Pepsin): 14%
SGF Stability (pH 1.2) 240 min ([2]; −Pepsin): 15%
AUC0-24 [3, 6]: 4.1 ± 3.8 ng·h/mL
AUC0-inf (ng · h/mL) [3, 6]: 6.8 ± 4^ ng · h/mL
Cmax [3, 6]: 3.1 ± 2.5 ng/mL
Tmax [3, 6]: 0.2 ± 0.1 h
half-life [3, 6]: 3.5 ± 2.6 h
AUC0-24 [3, 7]: 4.9 ± 2.6 ng·h/mL
Cmax [3, 7]: 3.8 ± 0.1 ng/mL
Tmax [3, 7]: 1.5 ± 0.7 h
AUC 0-inf_obs [3, 8]: 6.838 ng·h/mL
AUC 0-t [3, 8]: 4.14 ng·h/mL
AUMC 0-inf_obs [3, 8]: 46.7 ng/ml * h^2
Cl/F_obs [3, 8]: 1.944 (mg/kg)/(ng/ml)/h
Cmax [3, 8]: 3.14 ng/mL
Lambda_z [3, 8]: 0.523 h⁻¹
MRT 0-inf_obs [3, 8]: 5.185 h
Tlag [3, 8]: 0 h
Tmax [3, 8]: 0.165 h
Vz/F_obs [3, 8]: 6.707 (mg/kg)/(ng/ml)
t1/2 [3, 8]: 3.49 h
AUC 0-inf_obs [3, 9]: 6.8 ± 4 ng·h/mL
AUC 0-t [3, 9]: 4.1 ± 3.8 ng·h/mL
AUMC 0-inf_obs [3, 9]: 46.7 ± 47.2 ng/ml * h^2
Cl/F_obs [3, 9]: 1.9 ± 1.1 (mg/kg)/(ng/ml)/h
Cmax [3, 9]: 3.1 ± 2.5 ng/mL
Lambda_z [3, 9]: 0.5 ± 0.7 h⁻¹
MRT 0-inf_obs [3, 9]: 5.2 ± 3.9 h
Tlag [3, 9]: 0 ± 0 h
Tmax [3, 9]: 0.2 ± 0.1 h
Vz/F_obs [3, 9]: 6.7 ± 3.2 (mg/kg)/(ng/ml)
t1/2 [3, 9]: 3.5 ± 2.6 h
Tlag ([3]; rat, dosed as prodrug, 10 mg/kg equivalent of Base Structure, analyte Parent (Base Structure), individual animals): 0 h
AUC 0-inf_obs [3, 10]: 3.49 ng·h/mL and 3.404 ng·h/mL and 9.232 ng·h/mL and 11.23 ng·h/mL
AUC 0-t [3, 10]: 1.664 ng·h/mL and 3.218 ng·h/mL and 1.903 ng·h/mL and 9.777 ng·h/mL
AUMC 0-inf_obs [3, 10]: 10.68 ng/ml * h^2 and 2.586 ng/ml * h^2 and 76.05 ng/ml * h^2 and 97.48 ng/ml * h^2
Cl/F_obs [3, 10]: 2.866 (mg/kg)/(ng/ml)/h and 2.938 (mg/kg)/(ng/ml)/h and 1.083 (mg/kg)/(ng/ml)/h and 0.8908 (mg/kg)/(ng/ml)/h
Cmax [3, 10]: 1.3 ng/mL and 3.37 ng/mL and 1.27 ng/mL and 6.62 ng/mL
Lambda_z [3, 10]: 0.3303 h⁻¹ and 1.518 h⁻¹ and 0.1231 h⁻¹ and 0.1201 h⁻¹
MRT 0-inf_obs [3, 10]: 3.06 h and 0.7598 h and 8.238 h and 8.683 h
Tmax [3, 10]: 0.25 h (2×) and 0.08 h (2×)
Vz/F_obs [3, 10]: 8.676 (mg/kg)/(ng/ml) and 1.935 (mg/kg)/(ng/ml) and 8.802 (mg/kg)/(ng/ml) and 7.417 (mg/kg)/(ng/ml)
t1/2 [3, 10]: 2.099 h and 0.4565 h and 5.632 h and 5.771 h
AUC 0-t [3, 11]: 4.949 ng·h/mL
Cmax [3, 11]: 3.76 ng/mL
Tlag [3, 11]: 0 h
Tmax [3, 11]: 1.5 h
AUC 0-t [3, 12]: 4.9 ± 2.6 ng·h/mL
Cmax [3, 12]: 3.8 ± 0.1 ng/mL
Tlag [3, 12]: 0 ± 0 h
Tmax [3, 12]: 1.5 ± 0.7 h
Tlag ([3]; rat, dosed as prodrug, 10 mg/kg equivalent of Base Structure, analyte Prodrug, individual animals): 0 h
AUC 0-t [3, 13]: 6.8 ng·h/mL and 3.099 ng·h/mL
Cmax [3, 13]: 3.84 ng/mL and 3.68 ng/mL
Tmax [3, 13]: 2 h and 1 h
Abs. Quotient (Caco-2 cells): 0.54
Caco-2 Cells Permeability Recovery Rate (Caco-2 cells; [14]): 90%
Caco-2 Cells Permeability Recovery Rate (Caco-2 cells; −GF120918, 10 μM compound): 48%

Plasma Stability Half-Life [4]: 1.46 h
Plasma Stability Half-Life [5]: 8.7 min
Abs. Quotient (Caco-2 cells): 0.78
Caco-2 Cells Permeability Recovery Rate (Caco-2 cells; [14]): 104%
Caco-2 Cells Permeability Recovery Rate (Caco-2 cells; −GF120918, 10 μM compound): 107%
SMILES: CCCCCC(=O)NC(Cc1ccc(OC(=O)CN2CCN(C)CC2)cc1)C(=O)NC(C(=O)NCCCCCC(N)=O)C(C)CC (stereo not drawn) [Compound A22]

Source: patent publication US12421276B2 (priority 2016, dated 2025)
